Measurements: patent US6825172B2, “3-descladinosyl-6-O-carbamoyl and 6-O-carbonoyl macrolide antibacterial agents” (Janssen Pharmaceutica, NV, priority 2002, dated 2004)
In brackets after ≈: the same amount, converted by molar mass. Read-outs that look alike come from different tables or passages of the source.

Columns and labels:
Test in all cases: MIC, microdilution broth method (NCCLS)
Assay type in all cases: cell-based
S. pneumoniae ATCC49619 = conditions: Streptococcus pneumoniae, read-out: MIC Values, D: S. pneumoniae ATCC49619
Protocol: (§1) Minimal inhibitory concentration (MIC) has been an indicator of in vitro antibacterial activity widely used in the art. The in vitro antimicrobial activity of the compounds was determined by the microdilution broth method following the test method from the National Committee for Clinical Laboratory Standards (NCCLS). This method is described in the NCCLS Document M7-A4, Vol.17, No.2, “Methods for Dilution Antimicrobial Susceptibility Test for Bacteria that Grow Aerobically—Fourth Edition”, which is incorporated herein by reference.
(§2) In this method two-fold serial dilutions of drug in cation adjusted Mueller-Hinton broth are added to wells in microdilution trays. The test organisms are prepared by adjusting the turbidity of actively growing broth cultures so that the final concentration of test organism after it is added to the wells is approximately 5×10^4 CFU/well.
(§3) Following inoculation of the microdilution trays, the trays are incubated at 35 °C for 16-20 hours and then read. […] The amount of growth in the wells containing the test compound is compared with the amount of growth in the growth-control wells (no test compound) used in each tray. As set forth in Table 1, compounds of the present invention were tested against a variety of Gram positive and Gram negative pathogenic bacteria resulting in a range of activities depending on the organism tested.

E. coli OC2605 = conditions: Escherichia coli
Protocol: as §1, §2, §3

E. faecalis ATCC29212 = conditions: Enterococcus faecalis, read-out: MIC Values, C: E. faecalis ATCC29212
Protocol: as §1, §2, §3

H. influenzae ATCC49247 = conditions: Haemophilus influenzae, read-out: MIC Values, E: H. influenzae ATCC49247
Protocol: as §1, §2, §3

S. aureus ATCC29213 = conditions: Staphylococcus aureus, read-out: MIC Values, B: S. aureus ATCC29213
Protocol: as §1, §2, §3

[1] = Table 1, 6-Carbamoyl-3-Acyl Macrolide Derivatives
[2] = Table 1, 6-Carbamoyl-3-Acyl Macrolide Derivatives, read-out: MIC Values, A: E. coli OC2605
[3] = Table 2, 3,6-Dicarbamoyl Macrolide Derivatives
[4] = Table 2, 3,6-Dicarbamoyl Macrolide Derivatives, read-out: MIC Values, A: E. coil OC2605
[5] = Table 3, 6-Carbonate Macrolide Derivatives

| SMILES | MIC (S. pneumoniae ATCC49619; [1]) [mg/L] | MIC (E. coli OC2605; [2]) [mg/L] | MIC (E. faecalis ATCC29212; [1]) [mg/L] | MIC (H. influenzae ATCC49247; [1]) [mg/L] | MIC (S. aureus ATCC29213; [1]) [mg/L] | MIC (S. pneumoniae ATCC49619; [3]) [mg/L] | MIC (E. coli OC2605; [4]) [mg/L] | MIC (E. faecalis ATCC29212; [3]) [mg/L] | MIC (H. influenzae ATCC49247; [3]) [mg/L] | MIC (S. aureus ATCC29213; [3]) [mg/L] | other results |
| --- | --- | --- | --- | --- | --- | --- | --- | --- | --- | --- | --- |
| CC[C@H]1OC(=O)[C@H](C)[C@@H](OC(=O)Cc2cccnc2)[C@H](C)[C@@H](O[C@@H]2O[C@H](C)C[C@H](N(C)C)[C@H]2O)[C@](C)(OC(=O)NC/C=C/c2ccc(C(F)(F)F)nc2)C[C@@H](C)C(=O)[C@H](C)[C@H]2NC(=O)O[C@@]21C [Compound 36] | 0.06 (≈ 0.0633 µM) | 16 (≈ 16.9 µM) | 0.25 (≈ 0.264 µM) | 4 (≈ 4.22 µM) | 1 (≈ 1.05 µM) |  |  |  |  |  |  |
| CC[C@H]1OC(=O)[C@H](C)[C@@H](OC(=O)Cc2cccnc2)[C@H](C)[C@@H](O[C@@H]2O[C@H](C)C[C@H](N(C)C)[C@H]2O)[C@](C)(OC(=O)NC/C=C/c2cnc3ccccc3c2)C[C@@H](C)C(=O)[C@H](C)[C@H]2NC(=O)O[C@@]21C [Compound 30] | 0.03 (≈ 0.0323 µM) | 16 (≈ 17.2 µM) | 0.5 (≈ 0.538 µM) | 4 (≈ 4.3 µM) | 1 (≈ 1.08 µM) |  |  |  |  |  |  |
| CC[C@H]1OC(=O)[C@H](C)[C@@H](OC(=O)N(CC)Cc2cccnc2)[C@H](C)[C@@H](O[C@@H]2O[C@H](C)C[C@H](N(C)C)[C@H]2O)[C@](C)(OC(=O)NC/C=C/c2ccc(-c3ncccn3)cc2)C[C@@H](C)C(=O)[C@H](C)[C@H]2NC(=O)O[C@@]21C [Compound 61] |  |  |  |  |  | 0.06 (≈ 0.06 µM) | > 16 | 0.5 (≈ 0.5 µM) | 8 (≈ 8 µM) | 1 (≈ 1 µM) |  |
| CC[C@H]1OC(=O)[C@H](C)[C@@H](OC(=O)Nc2ccc(Cl)c(Cl)c2)[C@H](C)[C@@H](O[C@@H]2O[C@H](C)C[C@H](N(C)C)[C@H]2O)[C@](C)(OC(=O)NC/C=C/c2ccc(-c3ncccn3)cc2)C[C@@H](C)C(=O)[C@H](C)[C@H]2NC(=O)O[C@@]21C [Compound 54] |  |  |  |  |  | 0.5 (≈ 0.487 µM) | > 16 | 2 (≈ 1.95 µM) | 16 (≈ 15.6 µM) | 2 (≈ 1.95 µM) |  |
| CC[C@H]1OC(=O)[C@H](C)[C@@H](OC(=O)N(C)C(C)C)[C@H](C)[C@@H](O[C@@H]2O[C@H](C)C[C@H](N(C)C)[C@H]2O)[C@](C)(OC(=O)NC/C=C/c2ccc(-c3ncccn3)cc2)C[C@@H](C)C(=O)[C@H](C)[C@H]2NC(=O)O[C@@]21C [Compound 57] |  |  |  |  |  | 0.06 (≈ 0.064 µM) | 16 (≈ 17.1 µM) | 0.5 (≈ 0.534 µM) | 4 (≈ 4.27 µM) | 0.5 (≈ 0.534 µM) |  |
| CC[C@H]1OC(=O)[C@H](C)[C@@H](OC(=O)N(C)Cc2cccnc2)[C@H](C)[C@@H](O[C@@H]2O[C@H](C)C[C@H](N(C)C)[C@H]2O)[C@](C)(OC(=O)NC/C=C/c2ccc(-c3ncccn3)cc2)C[C@@H](C)C(=O)[C@H](C)[C@H]2NC(=O)O[C@@]21C [Compound 58] |  |  |  |  |  | 0.03 (≈ 0.0304 µM) | > 16 | 0.25 (≈ 0.254 µM) | 2 (≈ 2.03 µM) | 0.25 (≈ 0.254 µM) |  |
| CC[C@H]1OC(=O)[C@H](C)[C@@H](OC(=O)N2CCCC2)[C@H](C)[C@@H](O[C@@H]2O[C@H](C)C[C@H](N(C)C)[C@H]2O)[C@](C)(OC(=O)NC/C=C/c2ccc(-c3ncccn3)cc2)C[C@@H](C)C(=O)[C@H](C)[C@H]2NC(=O)O[C@@]21C [Compound 62] |  |  |  |  |  | 0.06 (≈ 0.0642 µM) | > 16 | 0.5 (≈ 0.535 µM) | 4 (≈ 4.28 µM) | 0.5 (≈ 0.535 µM) |  |
| CC[C@H]1OC(=O)[C@H](C)[C@@H](OC(=O)Cc2cccnc2)[C@H](C)[C@@H](O[C@@H]2O[C@H](C)C[C@H](N(C)C)[C@H]2O)[C@](C)(OC(=O)NC/C=C/c2ccnc3ccccc23)C[C@@H](C)C(=O)[C@H](C)[C@H]2NC(=O)O[C@@]21C [Compound 34] | 0.03 (≈ 0.0323 µM) | 8 (≈ 8.6 µM) | 0.25 (≈ 0.269 µM) | 2 (≈ 2.15 µM) | 0.5 (≈ 0.538 µM) |  |  |  |  |  |  |
| CC[C@H]1OC(=O)[C@H](C)[C@@H](OC(=O)C(C)C)[C@H](C)[C@@H](O[C@@H]2O[C@H](C)C[C@H](N(C)C)[C@H]2O)[C@](C)(OC(=O)NC/C=C/c2ccnc3ccccc23)C[C@@H](C)C(=O)[C@H](C)[C@H]2NC(=O)O[C@@]21C [Compound 33] | 0.03 (≈ 0.034 µM) | 16 (≈ 18.2 µM) | 0.25 (≈ 0.284 µM) | 2 (≈ 2.27 µM) | 0.5 (≈ 0.567 µM) |  |  |  |  |  |  |
| CC[C@H]1OC(=O)[C@H](C)[C@@H](OC(=O)N(CC)CC)[C@H](C)[C@@H](O[C@@H]2O[C@H](C)C[C@H](N(C)C)[C@H]2O)[C@](C)(OC(=O)OC/C=C/c2ccc(-c3cnccn3)cc2)C[C@@H](C)C(=O)[C@H](C)[C@H]2NC(=O)O[C@@]21C [Compound 85] |  |  |  |  |  |  |  |  |  |  | MIC (S. pneumoniae ATCC49619; [5]): 0.03 mg/L (≈ 0.032 µM); MIC (E. faecalis ATCC29212; [5]): 0.5 mg/L (≈ 0.533 µM); MIC (S. aureus ATCC29213; [5]): 0.5 mg/L (≈ 0.533 µM) |
| CC[C@H]1OC(=O)[C@H](C)[C@@H](OC(=O)C(C)C)[C@H](C)[C@@H](O[C@@H]2O[C@H](C)C[C@H](N(C)C)[C@H]2O)[C@](C)(OC(=O)OC/C=C/c2ccc(-c3cccnn3)cc2)C[C@@H](C)C(=O)[C@H](C)[C@H]2NC(=O)O[C@@]21C [Compound 82] |  |  |  |  |  |  |  |  |  |  | MIC (S. pneumoniae ATCC49619; [5]): 0.06 mg/L (≈ 0.066 µM); MIC (E. faecalis ATCC29212; [5]): 0.5 mg/L (≈ 0.55 µM); MIC (S. aureus ATCC29213; [5]): 0.5 mg/L (≈ 0.55 µM) |
| CC[C@H]1OC(=O)[C@H](C)[C@@H](OC(=O)Cc2cccnc2)[C@H](C)[C@@H](O[C@@H]2O[C@H](C)C[C@H](N(C)C)[C@H]2O)[C@](C)(OC(=O)NC/C=C/c2cnc(C(C)(C)C)nc2)C[C@@H](C)C(=O)[C@H](C)[C@H]2NC(=O)O[C@@]21C [Compound 42] | 0.06 (≈ 0.064 µM) |  | 0.5 (≈ 0.534 µM) |  | 1 (≈ 1.07 µM) |  |  |  |  |  |  |
| CC[C@H]1OC(=O)[C@H](C)[C@@H](OC(=O)N(CC)CC)[C@H](C)[C@@H](O[C@@H]2O[C@H](C)C[C@H](N(C)C)[C@H]2OC(C)=O)[C@](C)(OC(=O)OC/C=C/c2ccc(-c3ncccn3)cc2)C[C@@H](C)C(=O)[C@H](C)[C@H]2NC(=O)O[C@@]21C [Compound 75] |  |  |  |  |  |  |  |  |  |  | MIC (S. pneumoniae ATCC49619; [5]): 0.25 mg/L (≈ 0.255 µM); MIC (E. faecalis ATCC29212; [5]): 0.5 mg/L (≈ 0.51 µM); MIC (S. aureus ATCC29213; [5]): 1 mg/L (≈ 1.02 µM) |
| CC[C@H]1OC(=O)[C@H](C)[C@@H](OC(=O)N(CC)CC)[C@H](C)[C@@H](O[C@@H]2O[C@H](C)C[C@H](N(C)C)[C@H]2O)[C@](C)(OC(=O)NC/C=C/c2ccc(-n3cccn3)cc2)C[C@@H](C)C(=O)[C@H](C)[C@H]2NC(=O)O[C@@]21C [Compound 70] |  |  |  |  |  | 0.06 (≈ 0.0649 µM) |  | 0.5 (≈ 0.54 µM) |  | 1 (≈ 1.08 µM) |  |
| CC[C@H]1OC(=O)[C@H](C)[C@@H](OC(=O)Cc2ccccn2)[C@H](C)[C@@H](O[C@@H]2O[C@H](C)C[C@H](N(C)C)[C@H]2O)[C@](C)(OC(=O)NC/C=C/c2ccc(-c3ncccn3)cc2)C[C@@H](C)C(=O)[C@H](C)[C@H]2NC(=O)O[C@@]21C [Compound 2] |  | 16 (≈ 16.7 µM) | 0.25 (≈ 0.261 µM) | 1 (≈ 1.04 µM) | 0.5 (≈ 0.522 µM) |  |  |  |  |  |  |
| CC[C@H]1OC(=O)[C@H](C)[C@@H](OC(=O)C(C)C)[C@H](C)[C@@H](O[C@@H]2O[C@H](C)C[C@H](N(C)C)[C@H]2O)[C@](C)(OC(=O)NC/C=C/c2ccc(-c3ccn(C)n3)cc2)C[C@@H](C)C(=O)[C@H](C)[C@H]2NC(=O)O[C@@]21C [Compound 49] | 0.06 (≈ 0.0659 µM) |  | 1 (≈ 1.1 µM) |  | 1 (≈ 1.1 µM) |  |  |  |  |  |  |
